Key:
Format in all cases: cell-based, human
[1] = system: A549 and H1299 lung cancer cell lines; assay: XTT cellular viability assay; details: 2-AP (10 mM) alone
Protocol: (§1) Apoptotic cells by propidium iodide staining and FACS analysis were measured. Cells were harvested, pelleted by centrifugation and resuspended in phosphate-buffered saline containing 50 μg/ml propidium iodide, 0.1% Triton X-100, and 0.1% sodium citrate. Samples were stored at 4° C. for 16 hours and vortexed prior to FACS analysis (Becton-Dickenson FACScan, Mountain View, Calif.; FL-3 channel). Cellular viability was assessed with the XTT assay by growing cells in 96-well plates at 100 μL volume/well. After treatment with Ad-mda7 or control vectors, cells were incubated with the tetrazolium salt XTT according to the Roche protocol (Roche Diagnostics, Mannheim, Germany). Viability was assessed spectrophotometrically on an enzyme-linked immunosorbent assay (ELISA) plate reader.
(§2) Apoptotic cells were measured by propidium iodide staining and FACS analysis. Cells were harvested, pelleted by centrifugation and resuspended in phosphate-buffered saline (PBS) containing 50 μg/ml propidium iodide, 0.1% Triton X-100, and 0.1% sodium citrate. Samples were stored at 4° C. for 16 hours and vortexed prior to FACS analysis (Becton-Dickenson FACScan, Mountain View, Calif.; FL-3 channel). Cellular viability was assessed with the XTT assay by growing cells in 96-well plates in 100 μl volume/well. […] Viability was assessed spectrophotometrically on an enzyme-linked immunosorbent assay (ELISA) plate reader.

[2] = system: eIF-2α protein synthesis inhibition; assay: Measurement of cellular protein synthesis; details: with 2-AP
Protocol: Cells were treated with Ad-mda7 or Ad-Luc for 48 hrs. Where indicated, cells were treated with 1 mM 2-AP for 48 hrs. Measurement of protein synthesis was performed as previously described (14). After treatment, approximately 1×10^6 cell equivalents were incubated with L-[U-^14C] amino acid mixture (Amersham, Piscataway, N.J.) at 2 μCi/ml for 10 min at 37° C. The reaction was terminated by the addition of 20% (wt/vol) trichloroacetic acid and the radioactivity in the acid-precipitable fraction was measured in a scintillation counter.

[3] = system: PKR; assay: Immunoblot and confocal analysis of PKR, PKR substrates and caspases; details: A549; immunoprecipitation; 10 mM 2-AP
Protocol: Forty-eight hours after transfection, cell extracts were prepared for immunoblot assays as previously described (Pataer et al, 2000). The following antibodies were used: Bc1-2, Bak, Bax, PKR (K-17), eIF-2α, β-actin, p38 (A-12), phosphospecific p38 (D-8), stat1 (C-136), phosphospecific stat1 (A-2), stat3 (F-2), phosphospecific stat3 (B-7), anti-Tyk2 (C-20) and phosphospecific anti-Tyk (PY-99) (Santa Cruz Biotechnology, Santa Cruz, Calif.); Caspase 3, caspase-9, caspase-8 and Bid (PharMingen , San Diego, Calif.) and the phosphospecific PKR [pT451] and eIF-2a [pS51] (BioSource International, Camarillo, Calif.). The polyclonal and monoclonal antibodies to MDA-7 were obtained from Introgen Therapeutics, Inc. (Houston, Tex.).
4×10^5 cells/well were grown on chamber slides overnight and infected with Ad-mda7, Ad-Luc or PBS. 48 hrs later cells were washed with PBS and fixed overnight in 4% paraformaldehyde. Cells were then permeabilized for 20 min at 4° C. with 0.2% triton-X10O and blocked with 5% normal horse serum and 1% normal goat serum. Rabbit polyclonal anti-MDA7 and mouse monoclonal anti-PKR(B-10) were incubated overnight at 4° C. and developed with Rhodamine or FITC goat anti-rabbit IgG for 30-45 min at 37° C. Cells were then visualized under confocal microscopy.

[4] = system: A549 (wt p53), H1299 (null p53), and H322J (mutant p53) lung cancer cells; assay: Apoptosis by propidium iodide staining and FACS in lung cancer cells; details: combination with 2-AP
Protocol: as §1, §2

[5] = system: NF-κB; assay: NF-κB activation (electromobility shift assay)
Protocol: Studies were conducted to determine whether transgenic MDA-7 expression results in NF-κB activation, and to evaluate the role of NF-κB in protecting tumor cells from MDA-7 induced apoptosis.

[6] = system: H1299 cells; assay: MDA-7 secretion and trypan blue cytotoxicity with glycosylation and secretion inhibitors; details: for concentration that completely blocks secretion of MDA-7 protein: Ad-mda7 transduced H1299
Protocol: Since glycosylated proteins generally acquire sugars during sorting through the ER and Golgi apparatus, the effect of glycosylation and secretion inhibitors on MDA-7 intracellular processing and subsequent secretion was evaluated. Tunicamycin inhibits the addition of sugars to proteins within the ER, while brefeldin A inhibits vesicle transport of proteins from the ER to the Golgi. Both disrupt the secretion of proteins. The cytotoxicity caused by Ad-mda7 in the presence of these glycosylation and secretion inhibitors was evaluated. Tunicamycin and brefeldin A levels were titrated until inhibition of secretion of MDA-7 protein could be detected. As shown in FIGS. 26A and 26B, treatment of H1299 cells with 2 μg/ml tunicamycin completely blocks secretion of MDA-7 protein, whereas less than 1 μg/ml of brefeldin A is required for this effect. Note that blocking secretion using either drug results in substantial intracellular accumulation of MDA-7 protein. […] The enhanced killing may be due to the tunicamycin sensitizing cells to apoptotic death. […] Therefore, secreted MDA-7 protein is unable to induce killing in cancer cells and is not required for Ad-mda7 mediated apoptosis and eventual killing of cancer cells (FIG. 32B).

[7] = system: H1299 and A549 cells; assay: Mitochondrial membrane potential (TMRE) and apoptosis; details: Staurosporine 1 μM
Protocol: Apoptotic cells were measured by propidium iodide staining and FACS analysis. Cells were harvested, pelleted by centrifugation and resuspended in phosphate-buffered saline (PBS) containing 50 μg/ml propidium iodide, 0.1% Triton X-100, and 0.1% sodium citrate. Samples were stored at 4° C. for 16 hours and vortexed prior to FACS analysis (Becton-Dickenson FACScan, Mountain View, Calif.; FL-3 channel). Cellular viability was assessed with the XTT assay by growing cells in 96-well plates in 100 μl volume/well. On day one, cells were transduced with Ad-mda-7, Ad-p53 or control vectors. On day two, the cells were incubated with the tetrazolium salt XTT for 4 to 24 hours according to the Roche protocol (Roche Diagnostics, Mannheim, Germany). Viability was assessed spectrophotometrically on an enzyme-linked immunosorbent assay (ELISA) plate reader.
The potential-sensitive fluorochrome tetramethylrhodamine, ethylester, perchlorate (TMRE) (Molecular Probes, Eugene, Oreg.) was used to measure ΔΨm. Cells were incubated with 25 nM TMRE for 30 minutes at 37° C. in the dark, washed in PBS, and analyzed by FACS on the FL-2 channel (FACScan: Becton Dickinson, Mountain View, Calif.).

[8] = system: HUVEC and HMVEC cells; assay: Endothelial cell differentiation (tube formation) assay; details: HUVEC and HMVEC; 24 h
Protocol: Endothelial cell differentiation (tube formation) assays were done using an in vitro angiogenesis assay kit (Chemicon, Temecula, Calif.). Briefly, HUVEC and HMVEC cells were grown to 80% confluency, collected, resuspended in growth medium and plated at a concentration of 2×10^4 cells/well in a 96-well plate coated with matrigel (Chemicon, Temecula, Calif.). To the wells, varying concentrations of MDA-7 protein were added and incubated for 24 h at 37° C. Wells that were not treated with MDA-7 protein served as a negative control. The ability of sMDA-7 to inhibit tube formation was determined and quantitated by counting the number of tubes under bright field microscopy. All samples were tested in duplicate. For comparative studies using MDA-7 and endostatin (Calbiochem), cells were plated as described above and exposed to varying concentration of the proteins. […] All other experimental procedures were the same as described above.

Nc1ncc2[nH]cnc2n1.O=[N+]([O-])O [2-AP, 2-Aminopurine Nitrate Salt]
cell viability [1]: no effect on cell viability | protein synthesis in Ad-mda7 treated cells [2]: reversal of eIF-2α protein synthesis inhibition | PKR and eIF-2α phosphorylation in Ad-mda7 treated cells [3]: attenuated PKR activation with inhibition of both PKR and eIF-2α phosphorylation | apoptosis induction and cell killing in cells treated with Ad-mda7 [4]: blocked apoptosis induction and cell killing in a dose dependent manner

CC1=C(CC(=O)O)c2cc(F)ccc2/C1=C\c1ccc([S+](C)[O-])cc1 (stereo not drawn) [Sulindac]
TNF-mediated NF-κB activation [5]: inhibited TNF-mediated NF-κB activation in a dose-dependent manner | activation of the NF-κB pathway [5]: inhibited the activation of the NF-κB pathway

C[C@H]1CCC/C=C/[C@@H]2C[C@H](O)C[C@H]2[C@H](O)/C=C/C(=O)O1 [brefeldin A]
concentration that completely blocks secretion of MDA-7 protein [6]: less than 1 μg/ml

CN[C@@H]1C[C@H]2O[C@@](C)([C@@H]1OC)n1c3ccccc3c3c4c(c5c6ccccc6n2c5c31)C(=O)NC4 [staurosporine]
MMP changes and apoptosis ([7]; A549 cells): induces MMP changes and apoptosis | MMP changes and apoptosis ([7]; H1299 cells): able to induce MMP changes and the induction of apoptosis

endostatin [reference compound]
inhibition of endothelial tube formation [8]: the inhibitory effect by endostatin was not observed

tunicamycin
cell death, inhibitor alone ([6]; 2 μg/ml tunicamycin, trypan blue): did not induce death | concentration that completely blocks secretion of MDA-7 protein [6]: 2 µg/mL

— patent publication US20040009939A1, “Methods of enhancing immune induction involving MDA-7” (Board of Regent, The University of Texas System, priority 2002, published 2004)
